Test system: apolipoprotein D
Assay: Inhibitory effect against degradation of apolipoprotein D (human sweat concentrate treated with Brevibacterium epiderumidis cells, western blot)
Format: biochemical
Conditions: human sweat concentrate as apolipoprotein-D-containing sample; Brevibacterium epiderumidis cells as protease, about 10^8 cfu/mL; 37° C. for 24 hours; antibody-staining after SDS-PAGE
Protocol: Inhibitory effects of lauric acid and oleic acid on degradation of apolipoprotein D were studied using a human sweat concentrate as an apolipoprotein-D-containing sample and Brevibacterium epiderumidis cells as a protease.
(1) Preparation of Sweat Samples
The absorbent cotton balls were squeezed, whereby a solution (57.5 mL) was collected. The collected solution was filtered through a 0.45-μm filter and then concentrated by use of a MILLIPOR Centriprep YM-10.
Distilled water was added again to the concentrate, and the resultant solution was concentrated in a similar manner by use of a Centriprep YM-10, to thereby remove substances of low molecular weight. The product was employed as a sweat concentrate.
(2) 100 mM Tris-HCl buffer (0.03 mL), distilled water (0.02 mL), and each of lauric acid (Sigma) and oleic acid (Sigma) were added to an aliquot (0.04 mL) of the sweat concentrate prepared through the above method (1). […] Briefly, the cell-treated sweat concentrate was subjected to SDS polyacrylamide electrophoresis (SDS-PAGE) by use of a Ready Gel J (15% of separation gel concentration, Bio-Rad Laboratories, Inc.), and the thus-separated proteins were electrically transcribed from the gel onto a PVDF filter (Millipore Corporation, Immobilon transfer membrane). […]

Row | SMILES | degradation of apolipoprotein D (percent residue of apolipoprotein D)
1 | CCCCCCCC/C=C\CCCCCCCC(=O)O [oleic acid] | degradation of apolipoprotein D was suppressed
2 | CCCCCCCCCCCC(=O)O [lauric acid] | degradation of apolipoprotein D was suppressed

Reference: patent US7078437B2, “Apolipoprotein D degradation inhibitor” (Kao Corporation, priority 2003, dated 2006)
